Results on nine molecules are retold here after article PMC11923649, “Novel C-2 Aromatic Heterocycle-Substituted Triterpenoids Inhibit Hedgehog Signaling in GLI1 Overexpression Cancer Cells” (ACS Omega, 2025).

Usually IC50 stands for the concentration that gives 50% inhibition. The low end stands for higher potency, the high end for lower potency.

For test [1], the system named is U2OS. As to the kind of experiment: MTS cytotoxicity assay, 72 h, U2OS. It is filed as cell-based. To be noted: Homo sapiens. On the procedure: (§1) Based on the preliminary results and tests of a larger library of known triterpenoids, a small set of 2-substituted lupane and 18α-oleanane derivatives was designed and synthesized. As the first step, the cytotoxic activity of the synthesized derivatives was assessed using an MTS assay following 72 h of treatment (Table 1). Selected cell lines A549 (lung adenocarcinoma) and DU-145 (prostate cancer) are both dependent on Hh signaling. In addition, K562 (chronic myelogenous leukemia) was included as a cell line sensitive to Hh inhibitors[32] and a type of hematological malignancy with active Hh signaling.[33] MRC-5 lung fibroblasts and BJ human skin fibroblasts cell lines were used to evaluate the toxicity against nontumor cells. Compounds were also tested using the standard panel of other cancer cell lines, as described in our earlier work (Table 1).[27]
(§2) The human prostate tumor-derived cell line DU145 was obtained from ATCC (American Type Culture Collection) and cultured in RPMI 1640 (Roswell Park Memorial Institute) medium supplemented with 10% (v/v) fetal bovine serum (FBS). Human prostate tumor-derived LNCaP cells were obtained from ATCC and cultured in RPMI 1640 medium supplemented with 10% FBS. The human nonsmall cell lung carcinoma (NSCLC)-derived cell line HOP-62 was obtained from the DSMZ (German Collection of Microorganisms and Cell Cultures) and cultured in RPMI 1640 medium supplemented with 10% FBS. The human nonsmall cell lung carcinoma-derived cell line NCI-H322 was obtained from ECACC (European Collection of Authenticated Cell Cultures) and cultured in RPMI 1640 medium supplemented with 10% FBS. The human nonsmall cell lung carcinoma-derived cell line NCI-H522 was obtained from ATCC and cultured in RPMI 1640 medium supplemented with 10% FBS. The human lung tumor-derived cell line A549 was obtained from ATCC and cultured in Dulbecco’s Modified Eagle’s Medium (DMEM) supplemented with 10% FBS. The human medulloblastoma-derived cell line DAOY was obtained from ATCC and cultured in Eagle’s Minimum Essential Medium (EMEM) supplemented with 10% FBS. The human glioblastoma-derived cell line T98G was obtained from ATCC and cultured in EMEM medium supplemented with 10% FBS, 1 mmol/L sodium pyruvate, and 1 mmol/L nonessential amino acid mixture. All the above-mentioned cell lines were cultured at 37 °C in an atmosphere of 5% CO2 with 95% humidity. The cytotoxicity MTS assays were performed using MTS (3-(4,5-dimethylthiazol-2-yl)-5-(3-carboxymethoxyphenyl)-2-(4-sulfophenyl)-2H-tetrazolium) tetrazolium salt. Briefly, cells were seeded in a 384-well transparent plate in a volume of 25 μL and a concentration of 15,000 cells/mL (DU145, LNCaP, HOP-62, A549, DAOY, T98G) or 30,000 cells/mL (NCI-H322, NCI-H522). The next day, cells were exposed to compounds in a concentration range of 50–0.0975 μmol/L (dilution factor 2) and cultured in the presence of the compounds for 72 h. After 72 h, 5 μL of MTS/phenazine methosulfate solution was pipetted into each well and incubation continued for 1–4 h. Finally, the absorbance at 490 nm was measured using an EnVision multifunctional modular reader (PerkinElmer). The IC50 value was determined using Dotmatics software.
(Tetrazolium dyes change colour on reduction, which living cells bring about.)

In test [2] the test system is A549 (lung adenocarcinoma). The experiment in a line: MTS cytotoxicity assay, 72 h, A549. The format is cell-based. To be noted: Homo sapiens, A549, 72 h. On the procedure: as §1, §2
Test [3] concerns DU-145 (prostate cancer). The experiment in a line: MTS cytotoxicity assay, 72 h, DU-145. It is filed as cell-based, human. On the procedure:
as §1, §2

Test [4] concerns K562-TAX. The experiment in a line: MTS cytotoxicity assay, 72 h, K562-TAX. It is filed as cell-based. The method, then: as §1, §2
Test [5] relates to CCRF-CEM. As to the kind of experiment: MTS cytotoxicity assay, 72 h, CCRF-CEM. It is filed as cell-based. To be noted: for IC50: Homo sapiens, CCRF-CEM, 72 h, MTS. On the procedure:
as §1, §2

Test [6] deals with K562 (chronic myelogenous leukemia). The experiment in a line: MTS cytotoxicity assay, 72 h, K562. It is filed as cell-based. Particulars: Homo sapiens. The method, then:
as §1, §2

The subject of test [7] is HCT 116. The experiment in a line: MTS cytotoxicity assay, 72 h, HCT 116. It is filed as cell-based. Particulars: Homo sapiens, HCT-116, 72 h. On the procedure: as §1, §2
In test [8] the test system is HCT116 p53–/–. The experiment in a line: MTS cytotoxicity assay, 72 h, HCT116 p53–/–. To be noted: Homo sapiens, HCT-116, 72 h. The format is cell-based. On the procedure: as §1, §2
Test [9] concerns CEM-DNR. As to the kind of experiment: MTS cytotoxicity assay, 72 h, CEM-DNR. Particulars: Homo sapiens. It is filed as cell-based. The method, then:
as §1, with “1).[27] […]” for “1).[27]”

Test [10] concerns BJ human skin fibroblasts. The experiment in a line: MTS cytotoxicity assay, 72 h, BJ fibroblasts. It is filed as cell-based. To be noted: Homo sapiens, Skin fibroblast, normal fibroblasts. The method, then:
as §1, §2

Test [11] concerns MRC-5 lung fibroblasts. The experiment in a line: MTS cytotoxicity assay, 72 h, MRC-5 fibroblasts. It is filed as cell-based, human. Particulars: Homo sapiens, MRC5, 72 h, normal fibroblasts. The method, then: as §1, §2
[12] abbreviates: Homo sapiens, DU-145, 72 h, Table 1.
Setting [13] is: IC50 of CCRF-CEM line vs average of both fibroblasts (BJ and MRC-5), Table 1.
[14] abbreviates: Homo sapiens, DU-145, 72 h, full Table S1.
[15] abbreviates: CCRF-CEM vs average of BJ and MRC-5, full Table S1.

For `C=C(C)[C@@H]1CC[C@]2(C(=O)O)CC[C@]3(C)[C@H](CC[C@@H]4[C@@]5(C)CC[C@H](O)C(C)(C)[C@@H]5CC[C@]43C)[C@@H]12` [Betulinic acid 5, betulinic acid, reference compound], the IC50 in test [1] (Table 1) was 21 µM; in [2] (Table 1), 9.4 µM; in [3] (setting [12]), 9.6 µM; in [4] (Table 1), 14 µM; in [4] (full Table S1), 14.1 µM; in [5] (Table 1), 8.1 µM. Besides, the IC50 in test [6] (Table 1) came to 4.3 µM; in [7] (Table 1), 16 µM; in test [8] (Table 1) it was 16 µM; in test [9] (Table 1), 14 µM; in test [10] (Table 1) it was 24 µM; in test [11] (Table 1) it was 28 µM. The “SI (selectivity index)” value in test [5] (setting [13]) stood at 3.2.

For `CC1(C)C(=O)C(c2ccco2)=C[C@@]2(C)C1CC[C@]1(C)C2CCC2C3[C@H]4OC[C@@]3(CCC4(C)C)CC[C@]21C` (stereo partly drawn) [Compound 4a, 2-(Furan-2-yl)-19β,28-epoxyolean-1-en-3-one], the IC50 in test [1] (full Table S1), in test [2] (full Table S1), in test [3] (setting [14]), in test [4] (full Table S1), in test [5] (full Table S1) and in [6] (full Table S1) was > 50 µM in each case. For the same molecule, the IC50 in test [7] (full Table S1), in test [8] (full Table S1), in test [9] (full Table S1), in test [10] (full Table S1) and in test [11] (full Table S1) was > 50 µM throughout. Also, the “SI (selectivity index)” value in test [5] (setting [15]) is > 1.0.

In the case of `CC1(C)C(=O)C(c2ccoc2)=C[C@@]2(C)C1CC[C@]1(C)C2CCC2C3[C@H]4OC[C@@]3(CCC4(C)C)CC[C@]21C` (stereo partly drawn) [Compound 4b, 2-(Furan-3-yl)-19β,28-epoxyolean-1-en-3-one], the IC50 in test [1] (full Table S1), in test [2] (full Table S1), in test [3] (setting [14]), in test [4] (full Table S1), in [5] (full Table S1) and in [6] (full Table S1) was > 50 µM each time. Further, the half-maximal inhibitory concentration (IC50) in test [7] (full Table S1), in test [8] (full Table S1), in test [9] (full Table S1), in test [10] (full Table S1) and in test [11] (full Table S1) was > 50 µM each time. In addition, the “SI (selectivity index)” value in test [5] (setting [15]) is given as > 1.0.

In the case of `CC1(C)C(=O)C(c2cccs2)=C[C@@]2(C)C1CC[C@]1(C)C2CCC2C3[C@H]4OC[C@@]3(CCC4(C)C)CC[C@]21C` (stereo partly drawn) [Compound 4c, 2-(Thiophene-2-yl)-19β,28-epoxyolean-1-en-3-one], the IC50 in [1] (full Table S1), in [2] (full Table S1), in [3] (setting [14]), in test [4] (full Table S1), in test [5] (full Table S1) and in [6] (full Table S1) was > 50 µM each time. The IC50 in test [7] (full Table S1), in test [8] (full Table S1), in test [9] (full Table S1), in test [10] (full Table S1) and in [11] (full Table S1) was > 50 µM each time. The “SI (selectivity index)” value in test [5] (setting [15]) is reported as > 1.0.

Take `CC1(C)C(=O)C(c2ccsc2)=C[C@@]2(C)C1CC[C@]1(C)C2CCC2C3[C@H]4OC[C@@]3(CCC4(C)C)CC[C@]21C` (stereo partly drawn) [Compound 4d, 2-(Thiophene-3-yl)-19β,28-epoxyolean-1-en-3-one]: the IC50 in test [1] (full Table S1), in test [2] (full Table S1), in test [3] (setting [14]), in [4] (full Table S1), in test [5] (full Table S1) and in test [6] (full Table S1) was > 50 µM throughout. For the same molecule, the IC50 in test [7] (full Table S1), in test [8] (full Table S1), in [9] (full Table S1), in [10] (full Table S1) and in [11] (full Table S1) was > 50 µM throughout. In addition, the “SI (selectivity index)” value in [5] (setting [15]) is recorded as > 1.0.

Turning to `CC1(C)C(=O)C(c2ccc(Cl)s2)=C[C@@]2(C)C1CC[C@]1(C)C2CCC2C3[C@H]4OC[C@@]3(CCC4(C)C)CC[C@]21C` (stereo partly drawn) [Compound 4e, 2-(5-Chlorothiophen-2-yl)-19β,28-epoxyolean-1-en-3-one], the IC50 in test [1] (full Table S1), in test [2] (full Table S1), in test [3] (setting [14]), in test [4] (full Table S1), in test [5] (full Table S1) and in [6] (full Table S1) was > 50 µM in each case. The IC50 in test [7] (full Table S1), in test [8] (full Table S1), in test [9] (full Table S1), in test [10] (full Table S1) and in [11] (full Table S1) was > 50 µM each time. The “SI (selectivity index)” value in [5] (setting [15]) is on record as > 1.0.

Turning to `CC1(C)C(=O)C(c2cccnc2)=C[C@@]2(C)C1CC[C@]1(C)C2CCC2C3[C@H]4OC[C@@]3(CCC4(C)C)CC[C@]21C` (stereo partly drawn) [Compound 4g, 2-(Pyridin-3-yl)-19β,28-epoxyolean-1-en-3-one], the IC50 in test [1] (Table 1) was > 50 µM; in test [2] (Table 1), > 50 µM; in test [3] (setting [12]), 43 µM; in test [3] (setting [14]), 43.3 µM; in [4] (Table 1), 19 µM; in test [5] (Table 1) it was 25 µM. Also, the IC50 was 25.4 µM in test [5] (full Table S1); > 50 µM in test [6] (Table 1); > 50 µM in test [7] (Table 1); > 50 µM in [8] (Table 1); 16 µM in [9] (Table 1); 15.5 µM in test [9] (full Table S1). The IC50 in test [10] (Table 1) and in [11] (Table 1) was > 50 µM throughout. The “SI (selectivity index)” value in test [5] (setting [13]) is >2.0.

With `CC1(C)C(=O)C(c2ccncc2)=C[C@@]2(C)C1CC[C@]1(C)C2CCC2C3[C@H]4OC[C@@]3(CCC4(C)C)CC[C@]21C` (stereo partly drawn) [Compound 4h, 2-(Pyridine-4-yl)-19β,28-epoxyolean-1-en-3-one], the IC50 in test [1] (Table 1) was > 50 µM; in [2] (Table 1), > 50 µM; in test [3] (setting [12]), 22 µM; in test [3] (setting [14]), 22.1 µM; in [4] (Table 1), 18 µM; in test [4] (full Table S1), 18.1 µM. Further, the IC50 is 19 µM in test [5] (Table 1); 18.7 µM in test [5] (full Table S1); > 50 µM in test [6] (Table 1); > 50 µM in test [7] (Table 1); > 50 µM in [8] (Table 1); 19 µM in test [9] (Table 1). Besides, the IC50 in test [10] (Table 1) and in [11] (Table 1) was > 50 µM throughout. Moreover, the “SI (selectivity index)” value in test [5] (setting [13]) is >2.7.

For `CN(C)c1ccccc1CN1CCCN(Cc2ccccc2N(C)C)C1c1ccncc1` [GANT-61, reference compound], the IC50 in [3] (Table 1) is > 50 µM.
